In general, IC50 refers to the concentration needed to halve the response being measured. Usually CC50 stands for the concentration giving 50% cytotoxicity. The low end stands for harm at low concentration, the high end for better tolerance by the cells.

Structures can show the parent of a compound that is named as a salt.

Experiment [1] concerns the target Human immunodeficiency virus type 1 reverse transcriptase (Human immunodeficiency virus 1, UniProt Q72547, K103N/Y181C). The experiment is described as follows: Inhibitory activity against non-nucleoside reverse transcriptase inhibitors (NNRTI) -resistant HIV-1 strain A17 variant with Y181C plus K103N mutations in RT (reverse transcriptase).
The nature of experiment [2]: Cytotoxic concentration was evaluated against human peripheral blood mononuclear cells (PBMC). Format: functional.
The test system of experiment [3] is Human immunodeficiency virus 1. In words: Tested for the ability to inhibit the replication of HIV-1 strain HTLV IIIB in human peripheral blood mononuclear cells (PBMC). The format is functional, organism-based.
The test system of experiment [4] is Human immunodeficiency virus 1. The experiment is described as follows: Selectivity index was determined. Format: functional.

As for `S=C(NCCc1cccs1)Nc1ccc(Br)cn1`, the IC50 in experiment [1] came out at 3.3 µM. The compound also yielded a CC50 in experiment [2] of over 100 µM.
As to `Oc1ccc(CCNC(=S)Nc2ccc(Br)cn2)cc1`, the values for the IC50 in experiment [1] and in experiment [3] were over 100 µM and 7 nM, respectively. For the same compound, the CC50 in experiment [2] is over 100 µM.
Regarding `S=C(NCCc1ccccn1)Nc1nccs1`, the IC50 in experiment [3] came to 1000 nM. Besides, the CC50 in experiment [2] came to 100 µM. The compound further registered a Selectivity index in experiment [4] of 100.
For the compound `S=C(NCCC1=CCCCC1)Nc1nccs1`, the IC50 in experiment [1] is over 100 µM.
Take `S=C(NCc1ccco1)Nc1nccs1`: the IC50 in experiment [1] is 0.6 µM; in experiment [3], under 1 nM. Moreover, the CC50 in experiment [2] was over 100 µM. The compound further registered a Selectivity index in experiment [4] of over 100000.
As to `Cc1ccc(CC/N=C(\S)Nc2nccs2)cc1`, the IC50 in experiment [1] was over 100 µM; in experiment [3], 70 nM. For the same compound, in experiment [2], the CC50 is over 100 µM. Also, the Selectivity index in experiment [4] came out at 1429.
In the case of `S=C(NCC12CC3CC(CC(C3)C1)C2)Nc1nccs1`, the IC50 in experiment [1] was 1.3 µM; in experiment [3] it was under 1 nM. Further, in experiment [2], the CC50 was determined as 40 µM. Besides, the Selectivity index in experiment [4] amounted to 40000.
Turning to `CCC(NC(=S)Nc1nccs1)c1ccccc1` (stereo unspecified), the IC50 in experiment [1] was determined as 1.5 µM.
`Oc1ccc(CC/N=C(\S)Nc2nccs2)cc1` gave an IC50 in experiment [3] of over 100000 nM.
On the same count and under the same terms, for `S=C(NCCN1CCCCC1)Nc1nccs1` the value was over 100000 nM.
On to `S=C(NCCc1cccs1)Nc1nccs1`, for which the IC50 in experiment [3] was under 1 nM. In experiment [2], this compound displayed a CC50 of 71 µM. The Selectivity index in experiment [4] amounted to 71000.
Regarding `S=C(NCCOc1ccccc1)Nc1nccs1`, the IC50 was over 100 µM in experiment [1] and under 1 nM in experiment [3]. The compound further registered a CC50 in experiment [2] of over 100 µM. The compound also showed a Selectivity index in experiment [4] of over 100000.
On to `S=C(NCCc1c[nH]c2ccccc12)Nc1nccs1`, for which the values for the IC50 in experiment [1] and in experiment [3] were 3.7 µM and under 1 nM, respectively. In experiment [2], this compound returned a CC50 of 28 µM. Also, in experiment [4], the Selectivity index was 28000.
On the same counts, the results for `S=C(NCCCn1ccnc1)Nc1nccs1` are over 100 µM, under 1 nM, 35 µM and 35000.
In experiment [3], `CC(C)Nc1cccnc1N1CCN(C(=O)c2cc3cc(NS(C)(=O)=O)ccc3[nH]2)CC1` [DELAVIRDINE MESYLATE] showed an IC50 of 9 nM.
In experiment [3], `Cc1ccnc2c1NC(=O)c1cccnc1N2C1CC1` [NEVIRAPINE] had an IC50 of 34 nM.
